For this series the following is noted: corona discharge, 20 kV.

Description: Ionized air particles around the needle were accelerated and bombard towards the sample surface, causing electric field across the substrate. […] Later, the samples (n=5 for each group) were positioned on an anti-static mat (Bertech, 1059-2X3BKT) to increase the accuracy of the measurement. The voltmeter was grounded and was held 5 mm from the sample surface.
The particles 130, 190 were placed on a ground plate and a high voltage (20 kV) was applied between the plate and the top positive nozzle.

In the case of `NCC(=O)O` [glycine particles, glycine], the “charge accumulation rate and surface charge density after poling” value is recorded as “considerably higher than those before poling”.

For the origin of these results see patent US20250009942A1, “BIODEGRADABLE PIEZOELECTRIC NANOFIBERS” (University of Connecticut, priority 2022, published 2025).
